The text below walks through data of ChEMBL document CHEMBL5053524, “Novel Electrophilic Warhead Targeting a Triple-Negative Breast Cancer Driver in Live Cells Revealed by "Inverse Drug Discovery"” (J Med Chem, 2021).

Assay [1] deals with Bcap37. Briefly: Antiproliferative activity against human BcaP37 cells assessed as cell viability incubated for 24 hrs by CCk8 assay. The class given is functional, cell-based. The following applies: Bcap37, 24 h.
Assay [2] deals with Glutathione S-transferase P (Homo sapiens, UniProt P09211). Briefly: Inhibition of recombinant GSTP1 (unknown origin) using GSH substrate.
Sequence of Glutathione S-transferase P (P09211 whole entry): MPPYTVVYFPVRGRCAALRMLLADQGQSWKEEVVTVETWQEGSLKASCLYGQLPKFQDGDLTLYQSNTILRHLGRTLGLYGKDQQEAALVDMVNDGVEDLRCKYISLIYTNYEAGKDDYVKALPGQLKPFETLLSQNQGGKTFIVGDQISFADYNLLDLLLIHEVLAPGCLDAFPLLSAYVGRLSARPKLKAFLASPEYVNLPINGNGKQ
The test system of assay [3] is MCF7. Briefly: Antiproliferative activity agaisnt human MCF7 cells assessed as cell viability incubated for 24 hrs by CCK8 assay. It counts as functional, cell-based. The following applies: MCF7, 24 h.
Assay [4] deals with MDA-MB-468. Briefly: Antiproliferative activity agaisnt human MDA-MB-468 cells assessed as cell viability incubated for 24 hrs by CCK8 assay. The following applies: MDA-MB-468, 24 h. The class given is functional, cell-based.
In assay [5] the test system is MDA-MB-453. Briefly: Antiproliferative activity agaisnt human MDA-MB-453 cells assessed as cell viability incubated for 24 hrs by CCK8 assay. Conditions: MDA-MB-453, 24 h. The class given is functional, cell-based.
Assay [6] relates to MDA-MB-468. Briefly: Antiproliferative activity agaisnt human MDA-MB-468 cells assessed as cell viability incubated for 24 hrs in presence of GSTP1 siRNA by CCK8 assay. The class given is functional, cell-based. Conditions: MDA-MB-468, 24 h.
In assay [7] the test system is MDA-MB-231. Briefly: Antiproliferative activity agaisnt human MDA-MB-231 cells assessed as cell viability incubated for 24 hrs by CCK8 assay. It counts as functional, cell-based. The following applies: MDA-MB-231, 24 h.
In assay [8] the test system is MDA-MB-468. The experiment in a line: Antiproliferative activity agaisnt human MDA-MB-468 cells assessed as cell viability incubated for 24 hrs in presence of scrambled siRNA by CCK8 assay. It counts as functional, cell-based. Conditions: MDA-MB-468, 24 h.

For `C#CCOc1ccc(-c2c(N(CC)CC)c2=O)cc1`, the concentration for half-maximal inhibition (IC50) in assay [1] turned out to be 46.1 µM.

For `C#CCOC(=O)CCCCc1cc1=O`, the IC50 in assay [2] is 1.18 µM; in assay [1], 10.6 µM.

Turning to `O=c1cc1-c1ccc2ccccc2c1`, the IC50 in assay [2] stood at 0.36 µM.

Turning to `C#CCOc1ccc(-c2c(-c3ccc(OCC#C)cc3)c2=O)cc1`, the half-maximal inhibitory concentration (IC50) in assay [1] is 26.1 µM.

As for `O=c1cc1-c1ccc(Oc2ccccc2)cc1`, the concentration for half-maximal inhibition (IC50) in assay [2] stood at 0.73 µM.

Regarding `C#CCOc1ccc(-c2cc2=O)cc1`, the figures for the IC50 in assay [2] and in assay [1] were 1.64 µM and 45 µM, respectively.

As to `O=c1cc1-c1ccc(OCc2ccccc2)cc1`, the IC50 in assay [3] was 12.5 µM; in assay [2] it was 0.73 µM; in assay [4], 3.47 µM; in assay [5], 11 µM; in assay [6] it was 5.02 µM; in assay [7], 5.02 µM. In assay [8], the half-inhibitory concentration (IC50) was found to be 3.46 µM.

Take `O=c1cc1-c1ccc(OCc2ccc(-c3ccccc3)cc2)cc1`: the IC50 in assay [2] was determined as 3.2 µM.

As for `COc1ccc2cc(-c3cc3=O)ccc2c1`, the IC50 in assay [3] stood at 14.7 µM; in assay [2], 1.99 µM; in assay [4], 4.48 µM; in assay [5], 30 µM; in assay [6] it was 20.1 µM; in assay [7], 6.14 µM. In assay [8], the concentration for half-maximal inhibition (IC50) was 4.47 µM.
